# Assays:
# Type in all cases: in vivo, human
# proteasome proteins = assay: Mass spectrometry of proteasome proteins after bortezomib; details: mass spectroscopy, protein level
# Excerpt: Representative examples of proteasome up-regulation after bortezomib at both the RNA and protein levels are depicted.
# For further validation of GEP-derived data, the effects of bortezomib on proteasome proteins was also investigated by mass spectroscopy, (FIG. 8A). Representative examples of proteasome up-regulation after bortezomib at both the RNA and protein levels are depicted in FIG. 8A-8B.
# [1] = system: CD138-purified plasma cells; assay: Gene expression profiling of plasma cells prior to and 48 hr after bortezomib test-dose; details: for Mean log2 Expression Change / Mean log2 Expression Change, Average: 48 hr after test-dose vs baseline
# Procedure: Pharmacogenomic (PG) studies were performed as part of two TT3 trials (2003-33, n=303; 2006-66, n=177), obtaining plasma cells prior to and 48 hr after a bortezomib test-dose (1.0 mg/m2), which was accomplished in 142 patients receiving 2003-33 (training set) and […] receiving 2006-66 (test set). […] A continuous risk score was calculated and an optimal cut-point for event-free survival separation determined. The independent prognostic power of the binary risk score was tested in 2006-66. Multivariate analyses (MV) were employed to determine the role of post-bortezomib risk in relationship to standard prognostic variables and 70-gene baseline risk model.
# The details of Total Therapy 3 are known in the art. In brief, protocol 2003-33 enrolled 303 newly diagnosed patients with myeloma into a tandem transplantation program, employing 2 cycles each of induction chemotherapy with VTD-PACE (bortezomib, thalidomide, dexamethasone; 4-day continuous infusions of cisplatin, doxorubicine, cyclophosphamide, etoposide) prior to and after melphalan-based transplantation, followed by VTD maintenance. A pharmaco-genomic aspect of the protocol called for gene expression profiling analyses of CD138-purified plasma cells obtained prior to and 48 hr following a test-dose application of bortezomib (1.0 mg/m2). The observation of prognostic consequences of bortezomib-induced gene expression profiling alterations provided the rationale for accrual of an additional 177 patients to an extension TT3 protocol, 2006-66, in order to validate the pharmaco-genomic data generated in the 2003-33 trial. Gene expression profiling baseline data were available in 275 and 169 patients entered on 2003-33 and 2006-66, respectively, 142 and 128 of whom had paired samples at baseline and 48 hr after test-dosing.
# Multiple myeloma plasma cells were purified from bone marrow aspirates prior to and 48 hr following in vivo exposure to 1.0 mg/m2 of bortezomib in 142 of 303 patients enrolled in UARK2003-33 and 128 of 177 accrued to UARK2006-66. RNA was isolated from tumor cells and run on Affymetrix U133Plus2.0 microarrays. Multiple myeloma plasma cells were isolated from heparinized bone marrow (BM) aspirates using CD138-based immunomagnetic bead selection using the Miltenyi AutoMacs device (Miltenyi, Bergisch Gladbach, Germany). Peripheral Blood mononuclear cells were obtained through Ficoll gradient centrifugation. RNA purification, cDNA synthesis, cRNA preparation, and hybridization to the Human Genome U133Plus 2.0 GeneChip microarrays (Affymetrix, Santa Clara, Calif.) were performed.
# The Affymetrix U133Plus2.0 microarrays were preprocessed and normalized with MAS5.0 software. […] Each of these 1051 genes was then correlated with event-free survival in a Cox regression model and ranked the genes by p-values. In order to explore the various potential survival implications, two sets of covariates were considered in the Cox model for each gene: a) percent change at 48 hr compared to the baseline expression, and b) 48 hr expression.
# proteasome genes = assay: Proteasome gene expression changes after short-term exposure (test-dosing) to bortezomib, dexamethasone, thalidomide, melphalan; details: test-dosing in myeloma patients
# Excerpt: In earlier studies, pharmacogenomics was used to identify genes altered by short-term exposure of therapy-naïve cases to thalidomide and dexamethasone. Little to no overlap was found in the genes altered by these agents with those altered by bortezomib.
compound,measurement,setting,value
CC(C)C[C@H](NC(=O)[C@H](Cc1ccccc1)NC(=O)c1cnccn1)B(O)O [bortezomib],proteasome proteins after bortezomib,proteasome proteins,up-regulation
same,Mean log2 Expression Change,[1]; ACVR1C 1552519_at,−0.17
same,Mean log2 Expression Change,[1]; ALDOA 238996_x_at,0.36
same,Mean log2 Expression Change,[1]; ANKRD37 242548_x_at,−0.39
same,Mean log2 Expression Change,[1]; BIRC5 210334_x_at,−0.35
same,Mean log2 Expression Change,[1]; C1orf31 225638_at,0.18
same,Mean log2 Expression Change,[1]; C1orf128 229856_s_at,−0.32
same,Mean log2 Expression Change,[1]; C9orf130 227893_at,0.16
same,Mean log2 Expression Change,[1]; C14orf100 223215_s_at,0.12
same,Mean log2 Expression Change,[1]; C17orf60 217513_at,0.32
same,Mean log2 Expression Change,[1]; CHORDC1 218566_s_at,0.15
same,Mean log2 Expression Change,[1]; CISH 221223_x_at,−0.20
same,Mean log2 Expression Change,[1]; CISH 223377_x_at,−0.18
same,Mean log2 Expression Change,[1]; CISH 223961_s_at,−0.32
same,Mean log2 Expression Change,[1]; COMMD8 218351_at,0.16
same,Mean log2 Expression Change,[1]; COPS5 201652_at,0.12
same,Mean log2 Expression Change,[1]; COX6C 201754_at,0.12
same,Mean log2 Expression Change,[1]; CRYGS 223643_at,−0.18
same,Mean log2 Expression Change,[1]; ENSA 202596_at,0.12
same,Mean log2 Expression Change,[1]; FLNA 214752_x_at,0.18
same,Mean log2 Expression Change,[1]; FOSB 202768_at,−0.54
same,Mean log2 Expression Change,[1]; FUNDC1 235346_at,0.13
same,Mean log2 Expression Change,[1]; GABARAPL1 208869_s_at,0.20
same,Mean log2 Expression Change,[1]; HIST1H3B 208576_s_at,0.40
same,Mean log2 Expression Change,[1]; HNRPC 200014_s_at,0.11
same,Mean log2 Expression Change,[1]; HNRPC 212626_x_at,0.16
same,Mean log2 Expression Change,[1]; K1AA1394 228984_at,−0.29
same,Mean log2 Expression Change,[1]; K1AA1754 225582_at,−0.14
same,Mean log2 Expression Change,[1]; KLHL7 223250_at,0.09
same,Mean log2 Expression Change,[1]; LAP3 217933_s_at,0.15
same,Mean log2 Expression Change,[1]; LAPTM4A 200673_at,0.12
same,Mean log2 Expression Change,[1]; LOC400657 226924_at,0.11
same,Mean log2 Expression Change,[1]; LOC643318 1557633_at,−0.29
same,Mean log2 Expression Change,[1]; LOC644250 230292_at,−0.34
same,Mean log2 Expression Change,[1]; LZTR2 1564423_a_at,−0.23
same,Mean log2 Expression Change,[1]; MGC61598 226499_at,−0.29
same,Mean log2 Expression Change,[1]; MRPL47 223480_s_at,0.09
same,Mean log2 Expression Change,[1]; NMT1 201157_s_at,0.12
same,Mean log2 Expression Change,[1]; NOLA1 219110_at,0.11
same,Mean log2 Expression Change,[1]; NR4A1 202340_x_at,−0.79
same,Mean log2 Expression Change,[1]; NXT2 209628_at,0.13
same,Mean log2 Expression Change,[1]; PDE4B 203708_at,−0.25
same,Mean log2 Expression Change,[1]; PDE4B 211302_s_at,−0.28
same,Mean log2 Expression Change,[1]; PDE4B 215671_at,−0.42
same,Mean log2 Expression Change,[1]; PSMA4 203396_at,0.14
same,Mean log2 Expression Change,[1]; PSMA7 201114_x_at,0.21
same,Mean log2 Expression Change,[1]; PSMB2 200039_s_at,0.17
same,Mean log2 Expression Change,[1]; PSMB3 201400_at,0.13
same,Mean log2 Expression Change,[1]; PSMB4 202243_s_at,0.19
same,Mean log2 Expression Change,[1]; PSMB4 202244_at,0.15
same,Mean log2 Expression Change,[1]; PSMB7 200786_at,0.15
same,Mean log2 Expression Change,[1]; PSMC4 201252_at,0.16
same,Mean log2 Expression Change,[1]; PSMC5 209503_s_at,0.17
same,Mean log2 Expression Change,[1]; PSMD2 200830_at,0.13
same,Mean log2 Expression Change,[1]; PSMD4 200882_s_at,0.19
same,Mean log2 Expression Change,[1]; PSMD4 210460_s_at,0.19
same,Mean log2 Expression Change,[1]; PSMD4 211609_x_at,0.20
same,Mean log2 Expression Change,[1]; PSMD14 212296_at,0.23
same,Mean log2 Expression Change,[1]; RBM33 238801_at,−0.26
same,Mean log2 Expression Change,[1]; RPL41 216215_s_at,−0.16
same,Mean log2 Expression Change,[1]; SLC25A14 204587_at,−0.10
same,Mean log2 Expression Change,[1]; SNRPD1 202690_s_at,0.11
same,Mean log2 Expression Change,[1]; STAU2 229417_at,0.22
same,Mean log2 Expression Change,[1]; STAU2 233909_at,−0.40
same,Mean log2 Expression Change,[1]; STX11 235670_at,−0.14
same,Mean log2 Expression Change,[1]; SUMO1 211069_s_at,0.10
same,Mean log2 Expression Change,[1]; TAGAP 1552542_s_at,−0.19
same,Mean log2 Expression Change,[1]; TBC1D9 212960_at,−0.19
same,Mean log2 Expression Change,[1]; TMC8 236554_x_at,0.24
same,Mean log2 Expression Change,[1]; TUBA6 209251_x_at,0.12
same,Mean log2 Expression Change,[1]; UBPH 205687_at,0.16
same,Mean log2 Expression Change,[1]; WIRE 212050_at,−0.10
same,Mean log2 Expression Change,[1]; ZNF710 213658_at,−0.12
same,"Mean log2 Expression Change, Average",[1]; average of the Bad Genes,0.13
same,"Mean log2 Expression Change, Average",[1]; average of the Good Genes,−0.16
same,average expression decrease of the good genes from baseline to post-bortezomib,[1]; high-risk group,1.22 fold
same,average expression increase of the bad genes from baseline to post-bortezomib,[1]; high-risk group,1.21 fold
same,average expression decrease of the good genes from baseline to post-bortezomib,[1]; low-risk group,1.09 fold
same,average expression increase of the bad genes from baseline to post-bortezomib,[1]; low-risk group,1.07 fold
same,Mean log2 Expression Change,[1]; probeset 226399_at (no gene symbol),0.09
same,Mean log2 Expression Change,[1]; probeset 227524_at (no gene symbol),−0.17
same,Mean log2 Expression Change,[1]; probeset 229388_at (no gene symbol),0.22
same,Mean log2 Expression Change,[1]; probeset 236986_at (no gene symbol),−0.13
same,Mean log2 Expression Change,[1]; probeset 239082_at (no gene symbol),−0.11
same,Mean log2 Expression Change,"[1]; probeset 239343_at (chr12q23.3, no gene symbol)",0.19
same,Mean log2 Expression Change,[1]; probeset 1561060_at (no gene symbol),−0.27
same,proteasome gene expression change after short-term exposure,proteasome genes,hyper-activation of proteasome genes
